# Calls of active or inactive are those of the source.
# Columns and labels:
# [1] = Dd2 parasite growth inhibition in erythrocytes – SYBR Green, dry powder samples, set 4, dose response (AID 1159572); type: functional, cell-based
# [2] = MITF: Counter assay: A375 proliferation Measured in Cell-Based System Using Plate Reader - 2084-03_Inhibitor_Dose_DryPowder_Activity_Set8.; type: functional; details: A-375
# [3] = MITF Orthogonal Assay: SK-MEL-5 CTG Assay Measured in Cell-Based System Using Plate Reader - 2084-02_Inhibitor_Dose_DryPowder_Activity_Set7.; type: functional
# [4] = inhibitors of TRPM1-promoter reporter in SK-MEL-5 – cell-based, luciferase, dry powder, set 8, MITF inhibitor project, dose response (AID 624430); type: functional
# [5] = growth inhibition of MALME3 cells – cell-based, CellTiter-Glo luminescence, dry powder, set 5, orthogonal assay for MITF inhibitor project, dose response (AID 651584); type: functional; details: MALME-3
# [6] = growth inhibition of SK-MEL-5 melanoma cells – cell-based, CellTiter-Glo luminescence, dry powder, set 8, orthogonal assay for MITF inhibitor project, dose response (AID 651586); type: functional
# [7] = MITF Orthogonal Assay: MALME3 CTG Assay Measured in Cell-Based System Using Plate Reader - 2084-04_Inhibitor_Dose_DryPowder_Activity_Set6.; type: functional; details: MALME-3
# [8] = inhibitors of TRPM1-promoter reporter in SK-MEL-5 – cell-based, luciferase, dry powder, set 9, MITF inhibitor project, dose response (AID 651588); type: functional
# [9] = cytotoxicity in MITF-independent A375 cells – cell-based, CellTiter-Glo luminescence, dry powder, set 9, counter-screen for MITF modulator project, dose response (AID 651591); type: functional; details: A-375
# [10] = biological target: T1, Mannose-6-phosphate isomerase (Homo sapiens, UniProt P34949); assay: MPI inhibition at elevated mannose 6-phosphate – biochemical, fluorescence intensity, high mannose 6-phosphate, primary screen (AID 1220)
# T1 sequence (P34949 whole entry): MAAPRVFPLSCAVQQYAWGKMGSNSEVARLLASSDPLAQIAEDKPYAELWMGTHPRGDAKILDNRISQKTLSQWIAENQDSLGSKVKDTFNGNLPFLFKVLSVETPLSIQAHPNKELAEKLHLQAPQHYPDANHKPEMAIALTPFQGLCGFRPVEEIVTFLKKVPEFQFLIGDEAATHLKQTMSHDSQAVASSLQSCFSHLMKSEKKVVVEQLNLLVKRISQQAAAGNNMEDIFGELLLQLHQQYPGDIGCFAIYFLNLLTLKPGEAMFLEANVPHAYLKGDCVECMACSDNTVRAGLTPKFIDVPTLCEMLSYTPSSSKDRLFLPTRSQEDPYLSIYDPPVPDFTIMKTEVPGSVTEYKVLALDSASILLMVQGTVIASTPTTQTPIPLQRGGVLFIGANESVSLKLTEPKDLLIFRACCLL
# [11] = biological target: Glutathione-S-transferase (Schistosoma japonicum, UniProt Q26513); assay: GST-antibody interaction or FRET quenching – biochemical, TR-FRET, artefact control for Vif-APOBEC3G degradation inhibitor project, dose response (AID 1117362); type: functional
# Glutathione-S-transferase, sequence (Q26513 whole entry): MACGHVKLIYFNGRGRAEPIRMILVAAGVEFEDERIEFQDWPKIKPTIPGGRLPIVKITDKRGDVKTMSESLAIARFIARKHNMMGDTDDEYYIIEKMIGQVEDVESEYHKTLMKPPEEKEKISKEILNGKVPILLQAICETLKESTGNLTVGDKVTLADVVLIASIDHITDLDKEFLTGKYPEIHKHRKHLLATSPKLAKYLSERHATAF
# [12] = NIH-3T3 fibroblast cytotoxicity, dose response, cytotoxicity control, cell-based, fluorescence, Alamar Blue, secondary assay (AID 2327); type: functional;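 further: NIH-3T3 mouse fibroblasts cultured with fluconazole at 8 µg/mL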
# [13] = biological target: Eukaryotic translation initiation factor 4E (Mus musculus, UniProt P63073); assay: blockers of eIF4G binding by eIF4E – biochemical, TR-FRET, dose response (AID 855); type: functional;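 further: potency for disrupting eIF4E binding to eIF4GI seen as loss of FRET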
# Eukaryotic translation initiation factor 4E, sequence (P63073 whole entry): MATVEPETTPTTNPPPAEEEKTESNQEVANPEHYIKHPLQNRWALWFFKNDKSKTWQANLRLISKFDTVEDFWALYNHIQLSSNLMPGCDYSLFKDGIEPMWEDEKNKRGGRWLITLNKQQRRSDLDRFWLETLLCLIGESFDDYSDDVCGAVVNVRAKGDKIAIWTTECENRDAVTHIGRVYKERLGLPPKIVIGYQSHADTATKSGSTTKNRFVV
# Nonstructural protein 1 = Nonstructural protein 1 (Influenza A virus, UniProt Q194T2); type: functional, Influenza A virus (A/California/07/2009(H1N1))
# Nonstructural protein 1, sequence (Q194T2 whole entry): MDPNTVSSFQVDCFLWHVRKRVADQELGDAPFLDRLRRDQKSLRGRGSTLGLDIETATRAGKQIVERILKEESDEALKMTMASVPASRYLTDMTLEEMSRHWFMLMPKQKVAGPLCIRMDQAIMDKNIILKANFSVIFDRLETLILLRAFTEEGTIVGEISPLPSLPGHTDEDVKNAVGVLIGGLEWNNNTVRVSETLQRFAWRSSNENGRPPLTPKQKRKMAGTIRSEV
# [14] = biological target: T1, Mannose-6-phosphate isomerase; assay: MPI enzyme activity inhibition – biochemical, fluorescence intensity, coupled assay, primary screen (AID 1209)
# Genome polyprotein = Genome polyprotein (dengue virus type 2, UniProt P29990); assay: flavivirus cap methylation enzyme inhibition – biochemical, confirmation dose response, primary screen (AID 588689); type: functional
# Genome polyprotein, sequence (P29990 2492-3391 limits assumed): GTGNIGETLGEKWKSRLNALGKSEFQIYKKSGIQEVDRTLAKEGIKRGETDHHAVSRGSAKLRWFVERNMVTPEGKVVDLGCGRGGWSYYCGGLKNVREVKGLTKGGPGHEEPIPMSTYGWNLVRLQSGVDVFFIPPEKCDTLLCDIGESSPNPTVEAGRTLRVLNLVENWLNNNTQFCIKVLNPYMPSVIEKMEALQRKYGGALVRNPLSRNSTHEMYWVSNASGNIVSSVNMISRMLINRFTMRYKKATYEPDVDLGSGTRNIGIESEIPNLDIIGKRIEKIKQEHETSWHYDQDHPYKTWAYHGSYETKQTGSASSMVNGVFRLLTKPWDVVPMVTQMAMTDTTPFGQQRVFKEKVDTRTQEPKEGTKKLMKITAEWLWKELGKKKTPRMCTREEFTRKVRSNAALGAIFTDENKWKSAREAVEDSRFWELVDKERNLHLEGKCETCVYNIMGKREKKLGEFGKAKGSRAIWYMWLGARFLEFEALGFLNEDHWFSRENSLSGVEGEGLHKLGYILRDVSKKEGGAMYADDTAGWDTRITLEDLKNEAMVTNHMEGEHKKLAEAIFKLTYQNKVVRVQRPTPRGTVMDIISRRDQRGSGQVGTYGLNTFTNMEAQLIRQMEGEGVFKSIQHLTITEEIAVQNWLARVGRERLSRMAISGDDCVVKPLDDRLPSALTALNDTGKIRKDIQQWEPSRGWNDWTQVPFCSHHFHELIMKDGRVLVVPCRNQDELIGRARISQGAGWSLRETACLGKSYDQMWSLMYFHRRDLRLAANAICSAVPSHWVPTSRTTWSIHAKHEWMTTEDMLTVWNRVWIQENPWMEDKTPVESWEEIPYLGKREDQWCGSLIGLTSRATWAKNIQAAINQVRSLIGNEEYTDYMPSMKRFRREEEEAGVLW
# [15] = fluconazole-exposed Candida albicans growth modulators – fluorescence, retest, confirmation (AID 2467); type: functional, cell-based
# [16] = biological target: Induced myeloid leukemia cell differentiation protein Mcl-1 (Homo sapiens, UniProt Q07820); type: functional
# Induced myeloid leukemia cell differentiation protein Mcl-1, sequence (Q07820 whole entry): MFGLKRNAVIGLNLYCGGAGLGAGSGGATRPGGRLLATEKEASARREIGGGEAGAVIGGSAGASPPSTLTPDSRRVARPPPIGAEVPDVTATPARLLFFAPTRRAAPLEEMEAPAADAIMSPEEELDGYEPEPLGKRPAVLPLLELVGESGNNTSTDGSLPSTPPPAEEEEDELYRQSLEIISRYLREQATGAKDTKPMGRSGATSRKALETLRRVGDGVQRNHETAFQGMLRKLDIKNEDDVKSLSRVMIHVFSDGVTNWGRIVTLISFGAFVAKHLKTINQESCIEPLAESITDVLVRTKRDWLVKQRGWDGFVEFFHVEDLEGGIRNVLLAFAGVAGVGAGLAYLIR
smiles,measurement,setting,value
COc1ccc2c3c([nH]c2c1)[C@H](CO)N(C(C)=O)CC31CCN(C(=O)c2ccc3c(c2)OCO3)CC1,AC50,[1],6.93 µM (active)
CN1CCN(C2=C(Nc3ccc(F)cc3F)C(=O)c3ccccc3C2=O)CC1,AC50,[2],> 70 µM (inactive)
same,AC50,[3],9.87 µM (active)
same,AC50,[4],5.36 µM (active)
same,AC50,[5],25.4 µM (active)
same,AC50,[6],> 70 µM (inactive)
same,AC50,[7],25.4 µM (active)
same,AC50,[8],17.5 µM (active)
same,AC50,[9],> 70 µM (inactive)
CCn1c(C)nc2cc(C(=O)N/N=C/c3ccc(O)c(O)c3O)ccc21,IC50,[10],8.47 µM (active)
same,IC50,[11],45 µM (active)
same,EC50,[12],104 µM (active)
same,IC50,[13],27.5 µM (active)
same,IC50,Nonstructural protein 1,16.6 µM (active)
same,IC50,[14],7.02 µM (active)
same,IC50,Genome polyprotein,21.7 µM (active)
same,EC50,[15],1.6 µM (active)
same,IC50,[16],> 54 µM (active)

# — ChEMBL document CHEMBL1201862, “PubChem BioAssay data set” (2004)
